Tested on: PDC 899932-113-R3-J6 complex spheroid viability
Test: Anticancer human tumor 899932-113-R3-J6-PDC patient-derived melanoma cell line growth inhibition [RAS]
Details: for viability, T/C: stronger effect = lower value
Method in brief: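 Agents were tested in combination matrices in half-log decrements from a top concentration at or near clinical Cmax (10 microM if undetermined). Targets were multi-cell spheroids of tumour lines plus HUVEC and MSC stromal cells.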

[1] = curve of first compound, second compound 0.0316 µM
[2] = curve of first compound, second compound 0.1 µM
[3] = curve of first compound, second compound 0.316 µM
[4] = curve of first compound, second compound 1 µM
[5] = curve of first compound, second compound 3.16 µM
[6] = curve of first compound, second compound 10 µM
[7] = second compound 0.0316 µM, first compound 0.0316 µM
[8] = second compound 0.0316 µM, first compound 0.1 µM
[9] = second compound 0.0316 µM, first compound 0.316 µM
[10] = second compound 0.0316 µM, first compound 1 µM
[11] = second compound 0.1 µM, first compound 0.0316 µM
[12] = second compound 0.1 µM, first compound 0.1 µM
[13] = second compound 0.1 µM, first compound 0.316 µM
[14] = second compound 0.1 µM, first compound 1 µM
[15] = second compound 0.316 µM, first compound 0.0316 µM
[16] = second compound 0.316 µM, first compound 0.1 µM
[17] = second compound 0.316 µM, first compound 0.316 µM
[18] = second compound 0.316 µM, first compound 1 µM
[19] = second compound 1 µM, first compound 0.0316 µM
[20] = second compound 1 µM, first compound 0.1 µM
[21] = second compound 1 µM, first compound 0.316 µM
[22] = second compound 1 µM, first compound 1 µM
[23] = second compound 3.16 µM, first compound 0.0316 µM
[24] = second compound 3.16 µM, first compound 0.1 µM
[25] = second compound 3.16 µM, first compound 0.316 µM
[26] = second compound 3.16 µM, first compound 1 µM
[27] = second compound 10 µM, first compound 0.0316 µM
[28] = second compound 10 µM, first compound 0.1 µM
[29] = second compound 10 µM, first compound 0.316 µM
[30] = second compound 10 µM, first compound 1 µM
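For viability, T/C in this document: spheroids exposed to agents for seven days before readout; 100% = DMSO vehicle control wells.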

CC(C)n1nc(-c2ccc3oc(N)nc3c2)c2c(N)ncnc21 + CCn1c(-c2cc(N3CCN(C)CC3)cnc2C(C)OC)c2c3cc(ccc31)-c1csc(n1)CC(NC(=O)C1CC1C)C(=O)N1CCCC(N1)C(=O)OCC(C)(C)C2
IC50 (curve of first compound, second compound 0.000949 µM): 34.8 nM | IC50 (curve of first compound, second compound 0.003 µM): < 0.316 nM | IC50 (curve of first compound, second compound 0.00949 µM): < 0.316 nM | IC50 (curve of first compound, second compound 0.03 µM): < 0.316 nM | IC50 (curve of first compound, second compound 0.0949 µM): < 0.316 nM | IC50 (curve of first compound, second compound 0.3 µM): < 0.316 nM | viability, T/C (second compound 0.000949 µM, first compound 0.000316 µM): 82% | viability, T/C (second compound 0.000949 µM, first compound 0.001 µM): 63.3% | viability, T/C (second compound 0.000949 µM, first compound 0.00316 µM): 73.7% | viability, T/C (second compound 0.000949 µM, first compound 0.01 µM): 65% | viability, T/C (second compound 0.000949 µM, first compound 0.0316 µM): 51.4% | viability, T/C (second compound 0.000949 µM, first compound 0.1 µM): 30.5% | viability, T/C (second compound 0.003 µM, first compound 0.000316 µM): 35.6% | viability, T/C (second compound 0.003 µM, first compound 0.001 µM): 40.4% | viability, T/C (second compound 0.003 µM, first compound 0.00316 µM): 37% | viability, T/C (second compound 0.003 µM, first compound 0.01 µM): 34.4% | viability, T/C (second compound 0.003 µM, first compound 0.0316 µM): 29.1% | viability, T/C (second compound 0.003 µM, first compound 0.1 µM): 18.6% | viability, T/C (second compound 0.00949 µM, first compound 0.000316 µM): 4.03% | viability, T/C (second compound 0.00949 µM, first compound 0.001 µM): 3.88% | viability, T/C (second compound 0.00949 µM, first compound 0.00316 µM): 4.42% | viability, T/C (second compound 0.00949 µM, first compound 0.01 µM): 3.62% | viability, T/C (second compound 0.00949 µM, first compound 0.0316 µM): 2.93% | viability, T/C (second compound 0.00949 µM, first compound 0.1 µM): 2.22% | viability, T/C (second compound 0.03 µM, first compound 0.000316 µM): 2.41% | viability, T/C (second compound 0.03 µM, first compound 0.001 µM): 2.53% | viability, T/C (second compound 0.03 µM, first compound 0.00316 µM): 2.94% | viability, T/C (second compound 0.03 µM, first compound 0.01 µM): 2.25% | viability, T/C (second compound 0.03 µM, first compound 0.0316 µM): 2.43% | viability, T/C (second compound 0.03 µM, first compound 0.1 µM): 0.98% | viability, T/C (second compound 0.0949 µM, first compound 0.000316 µM): 2.52% | viability, T/C (second compound 0.0949 µM, first compound 0.001 µM): 2.03% | viability, T/C (second compound 0.0949 µM, first compound 0.00316 µM): 1.78% | viability, T/C (second compound 0.0949 µM, first compound 0.01 µM): 1.41% | viability, T/C (second compound 0.0949 µM, first compound 0.0316 µM): 1.07% | viability, T/C (second compound 0.0949 µM, first compound 0.1 µM): 0.65% | viability, T/C (second compound 0.3 µM, first compound 0.000316 µM): 1.86% | viability, T/C (second compound 0.3 µM, first compound 0.001 µM): 1.82% | viability, T/C (second compound 0.3 µM, first compound 0.00316 µM): 2.06% | viability, T/C (second compound 0.3 µM, first compound 0.01 µM): 1.52% | viability, T/C (second compound 0.3 µM, first compound 0.0316 µM): 1.91% | viability, T/C (second compound 0.3 µM, first compound 0.1 µM): 0.73%

Nc1ccn(C2OC(CO)C(O)C2(F)F)c(=O)n1 (stereo not drawn) + C#Cc1c(F)ccc2cc(O)cc(-c3ncc4c(N5CC6CCC(C5)N6)nc(OCC56CCCN5CC(F)C6)nc4c3F)c12
IC50 [1]: 17.6 nM | IC50 [2]: 19.3 nM | IC50 [3]: 17.1 nM | IC50 [4]: 19.2 nM | IC50 [5]: 16.5 nM | IC50 [6]: 17.6 nM | viability, T/C (second compound 0.0316 µM, first compound 0.00316 µM): 102% | viability, T/C (second compound 0.0316 µM, first compound 0.01 µM): 65.1% | viability, T/C [7]: 35.3% | viability, T/C [8]: 21.2% | viability, T/C [9]: 18.6% | viability, T/C [10]: 22.1% | viability, T/C (second compound 0.1 µM, first compound 0.00316 µM): 95% | viability, T/C (second compound 0.1 µM, first compound 0.01 µM): 71.7% | viability, T/C [11]: 34.3% | viability, T/C [12]: 18.9% | viability, T/C [13]: 20.5% | viability, T/C [14]: 20.6% | viability, T/C (second compound 0.316 µM, first compound 0.00316 µM): 99.1% | viability, T/C (second compound 0.316 µM, first compound 0.01 µM): 65.1% | viability, T/C [15]: 33.7% | viability, T/C [16]: 17.9% | viability, T/C [17]: 20.2% | viability, T/C [18]: 20.1% | viability, T/C (second compound 1 µM, first compound 0.00316 µM): 99.2% | viability, T/C (second compound 1 µM, first compound 0.01 µM): 70.4% | viability, T/C [19]: 35.6% | viability, T/C [20]: 16.4% | viability, T/C [21]: 15.3% | viability, T/C [22]: 20.8% | viability, T/C (second compound 3.16 µM, first compound 0.00316 µM): 103% | viability, T/C (second compound 3.16 µM, first compound 0.01 µM): 65.6% | viability, T/C [23]: 29.9% | viability, T/C [24]: 19.8% | viability, T/C [25]: 17.5% | viability, T/C [26]: 18.8% | viability, T/C (second compound 10 µM, first compound 0.00316 µM): 102% | viability, T/C (second compound 10 µM, first compound 0.01 µM): 67.2% | viability, T/C [27]: 33.5% | viability, T/C [28]: 15.2% | viability, T/C [29]: 18.3% | viability, T/C [30]: 19.2%

CC(Nc1ccc2c(c1)OCCn1cc(N3C(=O)OCC3C(F)F)nc1-2)C(N)=O (stereo not drawn) + C#Cc1c(F)ccc2cc(O)cc(-c3ncc4c(N5CC6CCC(C5)N6)nc(OCC56CCCN5CC(F)C6)nc4c3F)c12
IC50 [1]: 1780 nM | IC50 [2]: 2610 nM | IC50 [3]: 2440 nM | IC50 [4]: 2240 nM | IC50 [5]: 4560 nM | IC50 [6]: 2760 nM | viability, T/C [7]: 88.4% | viability, T/C [8]: 87.2% | viability, T/C [9]: 58.2% | viability, T/C [10]: 58% | viability, T/C (second compound 0.0316 µM, first compound 3.16 µM): 47.4% | viability, T/C (second compound 0.0316 µM, first compound 10 µM): 30.6% | viability, T/C [11]: 88.8% | viability, T/C [12]: 78.6% | viability, T/C [13]: 70.1% | viability, T/C [14]: 57.3% | viability, T/C (second compound 0.1 µM, first compound 3.16 µM): 51.7% | viability, T/C (second compound 0.1 µM, first compound 10 µM): 35.1% | viability, T/C [15]: 97.7% | viability, T/C [16]: 83.3% | viability, T/C [17]: 66% | viability, T/C [18]: 63.5% | viability, T/C (second compound 0.316 µM, first compound 3.16 µM): 49.2% | viability, T/C (second compound 0.316 µM, first compound 10 µM): 33.8% | viability, T/C [19]: 93% | viability, T/C [20]: 76% | viability, T/C [21]: 64.9% | viability, T/C [22]: 61.5% | viability, T/C (second compound 1 µM, first compound 3.16 µM): 44.2% | viability, T/C (second compound 1 µM, first compound 10 µM): 39.8% | viability, T/C [23]: 101% | viability, T/C [24]: 76.6% | viability, T/C [25]: 71.4% | viability, T/C [26]: 65% | viability, T/C (second compound 3.16 µM, first compound 3.16 µM): 60.9% | viability, T/C (second compound 3.16 µM, first compound 10 µM): 38% | viability, T/C [27]: 102% | viability, T/C [28]: 90% | viability, T/C [29]: 70% | viability, T/C [30]: 63.9% | viability, T/C (second compound 10 µM, first compound 3.16 µM): 52.5% | viability, T/C (second compound 10 µM, first compound 10 µM): 32.5%

CC(=O)OC12COC1CC(O)C1(C)C(=O)C(O)C3=C(C)C(OC(=O)C(O)C(NC(=O)OC(C)(C)C)c4ccccc4)CC(O)(C(OC(=O)c4ccccc4)C21)C3(C)C (stereo not drawn)
viability, T/C (compound 0.0316 µM): 27.8% [middle of 4 runs] | viability, T/C (compound 0.1 µM): 33.9% [middle of 4 runs] | viability, T/C (compound 0.316 µM): 37.7% [middle of 4 runs] | viability, T/C (compound 1 µM): 49.9% [middle of 4 runs] | viability, T/C (compound 3.16 µM): 73.4% [middle of 4 runs] | viability, T/C (compound 10 µM): 64.2% [middle of 4 runs] | IC50 (curve of compound): < 31.6 nM
